Data taken from BindingDB's records for patent US8962648 (Oncotherapy Science, 2015).

Target: T1, Lymphokine-activated killer T-cell-originated protein kinase (Homo sapiens, UniProt Q96KB5)
T1 sequence (Q96KB5 whole entry): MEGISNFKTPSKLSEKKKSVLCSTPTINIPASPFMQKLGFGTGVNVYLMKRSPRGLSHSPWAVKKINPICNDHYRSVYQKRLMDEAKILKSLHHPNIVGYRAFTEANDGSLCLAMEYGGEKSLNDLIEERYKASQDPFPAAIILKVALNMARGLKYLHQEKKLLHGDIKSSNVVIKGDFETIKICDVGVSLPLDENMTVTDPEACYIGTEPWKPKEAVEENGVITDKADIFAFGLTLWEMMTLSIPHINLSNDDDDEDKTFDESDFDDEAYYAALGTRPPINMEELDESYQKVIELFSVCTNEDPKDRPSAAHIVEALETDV
Assay: Kinase Assay
Settings: pH 7.4; 25 °C
Protocol: PBK activity was determined in the presence or absence of compounds using fluorescein isothiocyanate-labeled (FITC-labeled) histone H3 peptide as a substrate. […] The serially diluted compounds, 0.8 ng/micro-L PBK (Carna Biosciences) and 100 nM FITC-labeled histone H3 peptide were reacted in a reaction buffer (20 mM HEPES, 0.01% Tween-20, 0.3 mM MgCl2, 2 mM dithiothreitol, 50 micro-M ATP, pH 7.4) at room temperature for 1 hour. The reaction was stopped by the addition of three fold assay volume of progressive binding solution. Following 0.5 hour incubation at room temperature.

How did the IC50 turn out when `O=c1[nH]c2ccc(O)c(-c3ccc4c(c3)CNCC4)c2c2ccsc12` [US8962648, 353] was run?
Its IC50 is 2 nM.

For `NCC1CCN(Cc2ccc(-c3c(O)ccc4[nH]c(=O)c5sccc5c34)cc2F)CC1` [US8962648, 235], which IC50 is on record?
Its IC50 is 0.57 nM.

`CCNC(C)c1ccc(-c2c(O)ccc3[nH]c(=O)c4sccc4c23)cc1` (stereo not given) [US8962648, 385] was tested. Which IC50 did it give?
Its IC50 is 3.9 nM.

How did the IC50 turn out when `CN(C)Cc1ccc(-c2c(O)ccc3[nH]c(=O)c4sccc4c23)cc1` [US8962648, 165] was run?
Its IC50 is 6.9 nM.

For `CC(CBr)NS(=O)(=O)c1ccc(-c2c(O)ccc3[nH]c(=O)c4sccc4c23)cc1` (stereo not given) [US8962648, 1062], which IC50 is on record?
The IC50 was 31 nM.
